According to patent US20050282743A1, “Molecular interactions in cells” (Arbor Vita Corporation, priority 2001, published 2005):
Ends that are not written are not given here. Peptide text beside a SMILES is read from it. * marks the point of attachment. Biotin = O=C1N[C@H]2[C@H](CS[C@H]2CCCCC(=O)*)N1

Experiments:
Test in all cases: G' assay (10 uM PL peptide), results of TABLE 7 and TABLE 12
Assay type in all cases: binding
[1] = molecular target: T1, PDZ protein (GST-PDZ fusion) (Homo sapiens, UniProt P29475); settings: PDZ NOS1, PDZ Domain 1
T1 construct: made in house; host or cells: E. coli (DH5alpha, BL21 or JM109)
How it was run: (§1)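 Same steps as the G-zero format, apart from a peptide concentration of 10 uM in place of 20 uM in step 2. Amino-terminally biotinylated PL peptides bind GST-PDZ fusions, and retained peptide is quantified by 450 nm absorbance.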

[2] = molecular target: T2, PDZ protein (GST-PDZ fusion) (Homo sapiens, UniProt Q07157)
T2 construct: made in house; host or cells: E. coli (DH5alpha, BL21 or JM109)
How it was run: as §1

[3] = molecular target: T3, PDZ protein (GST-PDZ fusion) (Homo sapiens, UniProt Q9HD26); settings: PDZ PIST, PDZ Domain 1
T3 construct: made in house; host or cells: E. coli (DH5alpha, BL21 or JM109)
How it was run: as §1

[4] = molecular target: T4, PDZ protein (GST-PDZ fusion) (Homo sapiens, UniProt Q9UDY2)
T4 construct: made in house; host or cells: E. coli (DH5alpha, BL21 or JM109)
T4 sequence (Q9UDY2 1-1190): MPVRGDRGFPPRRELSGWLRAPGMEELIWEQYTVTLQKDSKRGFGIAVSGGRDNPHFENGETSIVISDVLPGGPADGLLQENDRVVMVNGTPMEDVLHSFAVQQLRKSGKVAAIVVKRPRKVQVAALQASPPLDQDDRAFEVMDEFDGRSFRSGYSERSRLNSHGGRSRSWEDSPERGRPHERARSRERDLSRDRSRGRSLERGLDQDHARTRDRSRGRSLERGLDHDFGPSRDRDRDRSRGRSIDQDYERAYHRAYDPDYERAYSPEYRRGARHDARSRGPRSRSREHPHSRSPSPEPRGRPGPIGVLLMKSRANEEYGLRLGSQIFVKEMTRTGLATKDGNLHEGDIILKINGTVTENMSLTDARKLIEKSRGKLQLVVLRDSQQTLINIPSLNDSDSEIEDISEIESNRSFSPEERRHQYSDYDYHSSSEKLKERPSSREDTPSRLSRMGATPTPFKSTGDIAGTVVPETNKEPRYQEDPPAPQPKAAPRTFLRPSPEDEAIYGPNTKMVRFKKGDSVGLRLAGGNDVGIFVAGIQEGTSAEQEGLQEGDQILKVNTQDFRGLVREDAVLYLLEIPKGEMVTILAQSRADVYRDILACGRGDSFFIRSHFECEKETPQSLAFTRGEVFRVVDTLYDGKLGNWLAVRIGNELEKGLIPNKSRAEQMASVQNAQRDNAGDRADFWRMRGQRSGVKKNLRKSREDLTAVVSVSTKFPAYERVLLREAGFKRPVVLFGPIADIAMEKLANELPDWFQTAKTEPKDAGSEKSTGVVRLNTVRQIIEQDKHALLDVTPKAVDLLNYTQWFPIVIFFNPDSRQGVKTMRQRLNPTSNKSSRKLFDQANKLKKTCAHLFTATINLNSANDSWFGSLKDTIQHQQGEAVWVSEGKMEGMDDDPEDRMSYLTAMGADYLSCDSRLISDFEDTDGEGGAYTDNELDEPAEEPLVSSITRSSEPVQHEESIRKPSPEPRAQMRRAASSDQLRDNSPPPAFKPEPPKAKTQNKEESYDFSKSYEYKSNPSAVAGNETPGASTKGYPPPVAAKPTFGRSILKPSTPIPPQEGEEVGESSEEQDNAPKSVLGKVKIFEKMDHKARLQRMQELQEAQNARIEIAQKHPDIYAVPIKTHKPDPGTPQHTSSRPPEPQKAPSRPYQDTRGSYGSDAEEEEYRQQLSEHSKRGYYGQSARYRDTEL
How it was run: as §1

T1 sequence (P29475 whole entry, the tested form may be a part): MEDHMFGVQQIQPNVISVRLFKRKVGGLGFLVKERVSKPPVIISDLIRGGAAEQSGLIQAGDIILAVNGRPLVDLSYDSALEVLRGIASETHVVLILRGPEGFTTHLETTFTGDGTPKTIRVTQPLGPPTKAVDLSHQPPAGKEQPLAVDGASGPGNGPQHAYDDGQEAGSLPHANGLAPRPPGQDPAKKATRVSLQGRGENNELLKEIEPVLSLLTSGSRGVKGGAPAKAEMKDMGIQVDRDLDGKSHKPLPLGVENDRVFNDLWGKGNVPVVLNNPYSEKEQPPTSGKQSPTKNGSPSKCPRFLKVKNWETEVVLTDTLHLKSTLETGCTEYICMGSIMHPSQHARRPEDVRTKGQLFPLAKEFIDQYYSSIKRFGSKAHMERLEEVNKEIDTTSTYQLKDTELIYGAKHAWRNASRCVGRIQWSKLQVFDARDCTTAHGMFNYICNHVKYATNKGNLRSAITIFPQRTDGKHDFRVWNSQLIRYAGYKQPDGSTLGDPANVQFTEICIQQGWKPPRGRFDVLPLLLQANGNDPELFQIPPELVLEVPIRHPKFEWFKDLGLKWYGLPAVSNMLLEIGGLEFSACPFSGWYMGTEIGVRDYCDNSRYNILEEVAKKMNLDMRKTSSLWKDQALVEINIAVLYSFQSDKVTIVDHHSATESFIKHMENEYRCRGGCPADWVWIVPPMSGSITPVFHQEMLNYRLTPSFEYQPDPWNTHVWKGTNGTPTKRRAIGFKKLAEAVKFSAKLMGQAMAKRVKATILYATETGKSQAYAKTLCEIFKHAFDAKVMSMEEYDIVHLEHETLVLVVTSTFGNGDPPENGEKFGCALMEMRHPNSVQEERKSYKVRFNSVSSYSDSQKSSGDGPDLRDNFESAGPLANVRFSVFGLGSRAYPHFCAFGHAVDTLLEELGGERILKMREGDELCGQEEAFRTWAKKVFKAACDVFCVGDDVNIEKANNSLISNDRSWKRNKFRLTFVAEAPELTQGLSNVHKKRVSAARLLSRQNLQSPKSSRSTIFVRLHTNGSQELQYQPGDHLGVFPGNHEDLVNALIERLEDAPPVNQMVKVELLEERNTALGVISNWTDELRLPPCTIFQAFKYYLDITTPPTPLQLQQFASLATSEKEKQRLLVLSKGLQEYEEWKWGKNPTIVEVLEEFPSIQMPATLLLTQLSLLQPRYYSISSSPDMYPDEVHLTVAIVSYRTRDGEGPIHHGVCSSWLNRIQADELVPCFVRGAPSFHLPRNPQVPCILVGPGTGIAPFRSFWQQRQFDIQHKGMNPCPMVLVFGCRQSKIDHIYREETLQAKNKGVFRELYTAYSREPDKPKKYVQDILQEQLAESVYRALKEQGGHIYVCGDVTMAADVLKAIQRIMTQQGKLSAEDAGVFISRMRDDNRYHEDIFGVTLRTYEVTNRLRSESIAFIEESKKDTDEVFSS
T2 sequence (Q07157 whole entry, the tested form may be a part): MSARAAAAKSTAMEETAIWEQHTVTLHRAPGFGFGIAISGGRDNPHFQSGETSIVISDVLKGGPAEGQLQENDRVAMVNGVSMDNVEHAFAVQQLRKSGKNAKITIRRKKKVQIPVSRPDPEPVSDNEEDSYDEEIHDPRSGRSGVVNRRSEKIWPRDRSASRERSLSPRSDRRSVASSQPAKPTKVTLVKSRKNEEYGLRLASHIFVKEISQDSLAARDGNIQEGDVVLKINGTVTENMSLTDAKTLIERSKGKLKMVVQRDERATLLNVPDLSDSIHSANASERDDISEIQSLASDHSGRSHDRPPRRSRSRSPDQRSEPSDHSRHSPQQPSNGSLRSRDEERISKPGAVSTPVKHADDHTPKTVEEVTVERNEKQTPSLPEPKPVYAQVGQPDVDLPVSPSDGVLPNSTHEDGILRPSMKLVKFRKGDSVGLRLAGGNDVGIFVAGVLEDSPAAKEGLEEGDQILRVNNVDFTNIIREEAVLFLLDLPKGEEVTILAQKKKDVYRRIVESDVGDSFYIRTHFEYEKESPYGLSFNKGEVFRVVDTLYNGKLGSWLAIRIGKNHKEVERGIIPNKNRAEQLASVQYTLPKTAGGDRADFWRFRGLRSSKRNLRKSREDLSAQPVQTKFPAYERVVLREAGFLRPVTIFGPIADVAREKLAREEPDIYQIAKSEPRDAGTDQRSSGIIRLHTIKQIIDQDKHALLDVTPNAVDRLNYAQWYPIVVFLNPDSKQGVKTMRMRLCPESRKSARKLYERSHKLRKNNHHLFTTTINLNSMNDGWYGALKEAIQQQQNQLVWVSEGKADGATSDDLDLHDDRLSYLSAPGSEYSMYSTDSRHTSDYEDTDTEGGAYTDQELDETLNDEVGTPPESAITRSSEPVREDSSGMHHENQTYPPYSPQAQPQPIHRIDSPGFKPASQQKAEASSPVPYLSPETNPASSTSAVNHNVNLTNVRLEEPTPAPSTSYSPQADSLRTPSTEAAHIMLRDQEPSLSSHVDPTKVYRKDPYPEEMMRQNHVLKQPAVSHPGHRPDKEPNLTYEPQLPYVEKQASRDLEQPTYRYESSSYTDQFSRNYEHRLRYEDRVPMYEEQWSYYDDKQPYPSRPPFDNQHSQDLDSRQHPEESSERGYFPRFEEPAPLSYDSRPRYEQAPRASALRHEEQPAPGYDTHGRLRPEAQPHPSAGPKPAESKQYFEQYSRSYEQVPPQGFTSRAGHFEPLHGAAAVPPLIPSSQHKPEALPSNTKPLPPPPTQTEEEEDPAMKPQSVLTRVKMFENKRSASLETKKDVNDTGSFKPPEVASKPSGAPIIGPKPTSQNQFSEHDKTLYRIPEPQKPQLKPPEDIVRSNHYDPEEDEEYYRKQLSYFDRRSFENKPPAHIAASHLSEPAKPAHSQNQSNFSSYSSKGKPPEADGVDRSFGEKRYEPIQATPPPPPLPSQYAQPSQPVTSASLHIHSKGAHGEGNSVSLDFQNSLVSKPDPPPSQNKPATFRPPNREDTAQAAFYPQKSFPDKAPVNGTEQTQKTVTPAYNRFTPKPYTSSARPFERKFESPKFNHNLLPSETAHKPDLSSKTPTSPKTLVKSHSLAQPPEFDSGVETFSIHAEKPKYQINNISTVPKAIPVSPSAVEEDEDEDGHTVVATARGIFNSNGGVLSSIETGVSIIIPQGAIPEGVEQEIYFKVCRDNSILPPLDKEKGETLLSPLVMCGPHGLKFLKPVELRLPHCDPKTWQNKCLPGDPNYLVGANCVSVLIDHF

| Classification [1] | Classification ([2]; PDZ ZO-1, PDZ Domain 1) | Classification [3] | Classification ([4]; PDZ ZO-2, PDZ Domain 1) | Compound | further results |
| --- | --- | --- | --- | --- | --- |
| 1 (A450 nm 0-1) | 1 (A450 nm 0-1) | – | – | CC[C@H](C)[C@H](NC(=O)[C@H](Cc1ccc(O)cc1)NC(=O)[C@H](CC(C)C)NC(=O)[C@H](CCC(N)=O)NC(=O)[C@H](Cc1c[nH]cn1)NC(=O)[C@H](CO)NC(=O)[C@H](C)NC(=O)[C@H](CC(C)C)NC(=O)[C@@H](NC(=O)[C@H](CC(=O)O)NC(=O)[C@H](CCSC)NC(=O)[C@H](Cc1ccccc1)NC(=O)[C@@H]1CCCN1C(=O)[C@H](CCCNC(=N)N)NC(=O)[C@@H](NC(=O)[C@H](CC(C)C)NC(=O)[C@H](CC(N)=O)NC(=O)[C@H](CC(=O)O)NC(=O)[C@@H](NC(=O)[C@H](CO)NC(=O)CCCC[C@@H]1SC[C@@H]2NC(=O)N[C@@H]21)[C@@H](C)O)C(C)C)[C@@H](C)O)C(=O)O [presenilin-2] (Biotin-STDNLVRPFMDTLASHQLYI-OH; C-terminus assumed) | – |
| – | – | 1 (A450 nm 0-1) | – | CC(C)C[C@H](NC(=O)[C@H](CC(C)C)NC(=O)[C@@H](NC(=O)[C@H](CC(=O)O)NC(=O)CCCC[C@@H]1SC[C@@H]2NC(=O)N[C@@H]21)[C@@H](C)O)C(=O)N[C@@H](CC(C)C)C(=O)N[C@H](C(=O)N[C@@H](CCC(=O)O)C(=O)N[C@@H](CC(N)=O)C(=O)N[C@@H](CCC(=O)O)C(=O)NCC(=O)N[C@@H](CC(=O)O)C(=O)N[C@@H](CCCCN)C(=O)N[C@H](C(=O)N[C@@H](CCC(=O)O)C(=O)N[C@@H](CCC(=O)O)C(=O)N[C@@H](CCC(N)=O)C(=O)N[C@H](C(=O)N[C@@H](CO)C(=O)N[C@@H](Cc1ccc(O)cc1)C(=O)N[C@H](C(=O)O)C(C)C)C(C)C)[C@@H](C)O)[C@@H](C)O [5H2B_HUMAN] (Biotin-DTLLLTENEGDKTEEQVSYV-OH; C-terminus assumed) | – |
| – | – | 1 (A450 nm 0-1) | – | CC[C@H](C)[C@H](NC(=O)[C@H](CO)NC(=O)[C@H](CCC(=O)O)NC(=O)[C@H](Cc1ccc(O)cc1)NC(=O)[C@H](CC(=O)O)NC(=O)[C@H](CC(N)=O)NC(=O)[C@H](CCC(=O)O)NC(=O)[C@H](CCCCN)NC(=O)CCCC[C@@H]1SC[C@@H]2NC(=O)N[C@@H]21)C(=O)N[C@@H](CO)C(=O)N[C@@H](CC(=O)O)C(=O)N[C@@H](CC(C)C)C(=O)N[C@@H](CCC(N)=O)C(=O)N[C@@H](CCC(N)=O)C(=O)NCC(=O)N[C@@H](CCCNC(=N)N)C(=O)N[C@@H](CC(=O)O)C(=O)N[C@H](C(=O)N[C@H](C(=O)N[C@@H](CCCNC(=N)N)C(=O)N[C@@H](CC(C)C)C(=O)O)[C@@H](C)O)[C@@H](C)CC [PAG] (Biotin-KENDYESISDLQQGRDITRL-OH; C-terminus assumed) | – |
| 1 (A450 nm 0-1) | – | – | – | TQGFPGPATWRRISSLESEV | – |
| – | – | – | – | A2AA_HUMAN (modified) (Biotin-HDFRRAFKKILARGDRKRIV; not fully specified) | Classification ([2]; PDZ ZO-1, PDZ Domain 2): 4 (A450 nm 3-4); Classification ([4]; PDZ ZO-2, PDZ Domain 2): 2 (A450 nm 1-2) |
| 4 (A450 nm 3-4) | 1 (A450 nm 0-1) | – | – | CC[C@H](C)[C@H](NC(=O)[C@H](Cc1ccc(O)cc1)NC(=O)[C@@H](NC(=O)[C@@H]1CCCN1C(=O)[C@H](CCC(N)=O)NC(=O)[C@H](CCC(=O)O)NC(=O)[C@H](CCC(N)=O)NC(=O)[C@H](C)NC(=O)[C@@H](NC(=O)[C@H](CC(C)C)NC(=O)[C@H](CC(C)C)NC(=O)[C@H](CCCNC(=N)N)NC(=O)[C@H](Cc1ccc(O)cc1)NC(=O)[C@H](CCSC)NC(=O)[C@H](C)NC(=O)[C@H](C)NC(=O)[C@@H]1CCCN1C(=O)[C@H](CCSC)NC(=O)[C@@H](NC(=O)[C@H](CCCCN)NC(=O)CCCC[C@@H]1SC[C@@H]2NC(=O)N[C@@H]21)[C@@H](C)O)[C@@H](C)O)C(C)C)C(=O)O [MINT-1] (Biotin-KTMPAAMYRLLTAQEQPVYI-OH; C-terminus assumed) | – |
| 1 (A450 nm 0-1) | 1 (A450 nm 0-1) | – | – | CC(C)C[C@H](NC(=O)CNC(=O)[C@@H](NC(=O)[C@H](CO)NC(=O)[C@H](CC(N)=O)NC(=O)[C@H](Cc1ccccc1)NC(=O)CNC(=O)[C@H](C)NC(=O)[C@H](C)NC(=O)[C@H](Cc1ccccc1)NC(=O)[C@@H](NC(=O)CCCC[C@@H]1SC[C@@H]2NC(=O)N[C@@H]21)[C@@H](C)O)[C@@H](C)O)C(=O)N1CCC[C@H]1C(=O)N[C@@H](Cc1c[nH]cn1)C(=O)N[C@@H](CO)C(=O)N[C@H](C(=O)N[C@H](C(=O)N[C@@H](CCCNC(=N)N)C(=O)N[C@H](C(=O)O)C(C)C)[C@@H](C)O)[C@@H](C)O [Neuroligin] (Biotin-TFAAGFNSTGLPHSTTRV-OH; C-terminus assumed) | – |
| 2 (A450 nm 1-2) | 5 (A450 nm of 4 more than 2× repeated) | – | 5 (A450 nm of 4 more than 2× repeated) | ELLQFCRTPNPALKNGQYWV (Biotin-ELLQFCRTPNPALKNGQYWV) | Classification ([2]; PDZ ZO-1, PDZ Domain 2): 4 (A450 nm 3-4); Classification ([4]; PDZ ZO-2, PDZ Domain 2): 1 (A450 nm 0-1) |
| – | – | 1 (A450 nm 0-1) | 1 (A450 nm 0-1) | PPATPSPRLALPAHHNATRL (Biotin-PPATPSPRLALPAHHNATRL) [Na+/Pi cotransporter 2] | – |
| – | 1 (A450 nm 0-1) | 1 (A450 nm 0-1) | 1 (A450 nm 0-1) | GPVPGEPAKPKTSAHHATFV (Biotin-GPVPGEPAKPKTSAHHATFV) | – |

| Compound | Classification [1] | Classification ([2]; PDZ ZO-1, PDZ Domain 1) | Classification [3] | Classification ([4]; PDZ ZO-2, PDZ Domain 1) | further results |
| --- | --- | --- | --- | --- | --- |
| CC(C)C[C@H](NC(=O)[C@H](C)NC(=O)[C@@H](NC(=O)[C@H](CCC(=O)O)NC(=O)[C@H](CCCNC(=N)N)NC(=O)[C@H](CCCNC(=N)N)NC(=O)CNC(=O)[C@H](CCC(N)=O)NC(=O)[C@H](CC(C)C)NC(=O)[C@H](CCCNC(=N)N)NC(=O)CNC(=O)CNC(=O)[C@H](CCCNC(=N)N)NC(=O)[C@H](C)NC(=O)[C@H](CO)NC(=O)[C@H](CCCNC(=N)N)NC(=O)CNC(=O)CNC(=O)[C@H](C)NC(=O)[C@H](C)NC(=O)CCCC[C@@H]1SC[C@@H]2NC(=O)N[C@@H]21)[C@@H](C)O)C(=O)O [HPV E6 33 (modified)] (Biotin-AAGGRSARGGRLQGRRETAL-OH; C-terminus assumed) | – | – | – | 1 (A450 nm 0-1) | – |
| CC(C)C[C@H](NC(=O)[C@H](CCCNC(=N)N)NC(=O)CNC(=O)CNC(=O)[C@H](CCCNC(=N)N)NC(=O)[C@H](C)NC(=O)[C@@H]1CCCN1C(=O)[C@H](CCCNC(=N)N)NC(=O)CNC(=O)CNC(=O)[C@@H](NC(=O)[C@H](C)NC(=O)CCCC[C@@H]1SC[C@@H]2NC(=O)N[C@@H]21)C(C)C)C(=O)N[C@@H](CCC(N)=O)C(=O)NCC(=O)N[C@@H](CCCNC(=N)N)C(=O)N[C@@H](CCCNC(=N)N)C(=O)N[C@@H](CCC(N)=O)C(=O)N[C@H](C(=O)N[C@@H](CCC(N)=O)C(=O)N[C@H](C(=O)O)C(C)C)[C@@H](C)O [HPV E6 58 (modified)] (Biotin-AVGGRPARGGRLQGRRQTQV-OH; C-terminus assumed) | – | – | – | 3 (A450 nm 2-3) | – |
| CC[C@H](C)[C@H](NC(=O)[C@H](CCC(N)=O)NC(=O)[C@@H](NC(=O)[C@H](Cc1c[nH]cn1)NC(=O)[C@H](CCC(N)=O)NC(=O)[C@H](CC(=O)O)NC(=O)[C@H](CCC(=O)O)NC(=O)[C@H](CC(=O)O)NC(=O)[C@H](Cc1ccccc1)NC(=O)[C@@H]1CCCN1C(=O)[C@H](CCC(=O)O)NC(=O)[C@H](CC(N)=O)NC(=O)[C@H](CCC(=O)O)NC(=O)[C@@H]1CCCN1C(=O)[C@H](CC(=O)O)NC(=O)[C@H](CO)NC(=O)[C@H](CC(=O)O)NC(=O)CCCC[C@@H]1SC[C@@H]2NC(=O)N[C@@H]21)[C@@H](C)O)C(=O)N[C@H](C(=O)N[C@@H](CCCCN)C(=O)N[C@H](C(=O)O)C(C)C)[C@@H](C)O [PTEN] | – | – | 1 (A450 nm 0-1) | – | – |
